In patent US11124541B2, “Chimeric melanocortin ligands and methods of use thereof” (REGENTS OF THE UNIVERSITY OF MINNESOTA, priority 2016, dated 2021):
Values joined by “and” are separate entries in the source; they are usually repeats but may differ in a detail not shown here. Identical values can stand only once. Like-named read-outs stand apart in the source and are kept apart here. Blank lines part the entries; values can stand above or below the molecule they belong to. Non-standard residues stand in square brackets, D forms with d. Residues, ends and D or L forms follow the SMILES beside them. No end group written: not given here. Dap = NC[C@H](N)C(=O)O

What was measured:
male mice = assay: ICV or IT administration in male mice monitored in TSE metabolic cages; type: in vivo
From the text: As described herein, compound 2 (c[Pro-His-DPhe-Arg-Trp-Dap-Ala-DPro] (SEQ ID NO:4)) has been administered in male mice. This compound has been administered via a cannula directly into the brain (ICV administration) or through an injection into the spinal cord (IT administration), at three different doses each administration route (2 nmol, 5 nmol, and 10 nmol). After compound administration, the mice were monitored in TSE metabolic cages, which record food intake, water intake, ambulatory activity (how many times a mouse breaks a light beam, which can give an indication of toxicity), respiratory-exchange ratio (RER, ratio between amount of CO2 produced in metabolism and O2 consumed, giving an indication if fat [RER value closer to 0.7] or carbohydrates [RER value closer to 1] is the energy source being utilized), and energy expenditure.

mMC1R [1] = target: T1, mMC1R (Mus musculus, UniProt Q01727); assay: cAMP AlphaScreen agonist assay, HEK293 cells stably expressing mouse MC1R; details: read-out: mMC1R EC50; agonist, cAMP
mMC3R [2] = target: T2, mMC3R (Mus musculus, UniProt P33033); assay: cAMP AlphaScreen agonist assay, HEK293 cells stably expressing mouse MC3R; details: read-out: mMC3R EC50; agonist, cAMP
mMC4R [3] = target: T3, mMC4R (Mus musculus, UniProt P56450); assay: cAMP AlphaScreen agonist assay, HEK293 cells stably expressing mouse MC4R
mMC5R [4] = target: T4, mMC5R (Mus musculus, UniProt P41149); assay: cAMP AlphaScreen agonist assay, HEK293 cells stably expressing mouse MC5R; details: read-out: mMC5R EC50; agonist, cAMP
mMC1R [5] = target: T1, mMC1R; parameters: expressed in transfected cells; host or cells: HEK293; details: literature value; read-out: reported agonist potency at the mMC1R; cited from earlier work
mMC3R [6] = target: T2, mMC3R; parameters: expressed in transfected cells; host or cells: HEK293; details: literature value; read-out: reported agonist potency at the mMC3R; cited from earlier work
mMC4R [7] = target: T3, mMC4R; parameters: expressed in transfected cells; host or cells: HEK293; details: cited from earlier work; for reported selectivity for the mMC4R over the mMC3R: literature chimeric ligands; for EC50: literature value, read-out: reported agonist potency at the mMC4R
mMC5R [8] = target: T4, mMC5R; parameters: expressed in transfected cells; host or cells: HEK293; details: literature value; read-out: reported agonist potency at the mMC5R; cited from earlier work
mMC4R [9] = target: T3, mMC4R; parameters: expressed in transfected cells; host or cells: HEK293; details: AGRP intrinsic potency; cited from earlier work
[10] = compound versus vehicle treated animals

T3 sequence (P56450 whole entry): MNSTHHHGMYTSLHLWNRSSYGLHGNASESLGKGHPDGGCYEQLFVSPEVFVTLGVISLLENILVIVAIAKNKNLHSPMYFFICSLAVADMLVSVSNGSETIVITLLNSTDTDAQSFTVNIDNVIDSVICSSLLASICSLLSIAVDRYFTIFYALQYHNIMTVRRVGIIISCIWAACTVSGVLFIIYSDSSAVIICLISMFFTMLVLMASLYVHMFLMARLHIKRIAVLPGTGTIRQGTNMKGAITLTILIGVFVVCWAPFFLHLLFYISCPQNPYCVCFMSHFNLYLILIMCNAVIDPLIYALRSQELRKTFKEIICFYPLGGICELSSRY
T4 sequence (P41149 whole entry): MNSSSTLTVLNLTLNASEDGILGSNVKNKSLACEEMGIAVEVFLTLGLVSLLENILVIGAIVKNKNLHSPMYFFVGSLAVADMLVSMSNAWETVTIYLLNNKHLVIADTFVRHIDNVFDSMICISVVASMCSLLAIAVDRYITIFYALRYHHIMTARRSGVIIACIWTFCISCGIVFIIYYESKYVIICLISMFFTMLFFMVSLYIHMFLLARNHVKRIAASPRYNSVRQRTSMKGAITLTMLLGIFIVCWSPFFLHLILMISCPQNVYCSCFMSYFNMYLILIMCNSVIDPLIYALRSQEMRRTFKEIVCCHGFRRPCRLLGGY
T2 sequence (P33033 whole entry): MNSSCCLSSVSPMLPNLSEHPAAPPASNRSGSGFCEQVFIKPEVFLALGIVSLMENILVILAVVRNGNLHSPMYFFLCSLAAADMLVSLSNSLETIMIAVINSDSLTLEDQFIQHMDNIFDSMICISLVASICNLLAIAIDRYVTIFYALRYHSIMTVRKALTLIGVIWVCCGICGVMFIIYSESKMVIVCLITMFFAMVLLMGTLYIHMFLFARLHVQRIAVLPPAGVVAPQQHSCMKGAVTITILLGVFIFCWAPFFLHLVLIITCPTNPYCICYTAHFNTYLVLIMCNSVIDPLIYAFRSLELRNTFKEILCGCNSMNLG
T1 sequence (Q01727 whole entry): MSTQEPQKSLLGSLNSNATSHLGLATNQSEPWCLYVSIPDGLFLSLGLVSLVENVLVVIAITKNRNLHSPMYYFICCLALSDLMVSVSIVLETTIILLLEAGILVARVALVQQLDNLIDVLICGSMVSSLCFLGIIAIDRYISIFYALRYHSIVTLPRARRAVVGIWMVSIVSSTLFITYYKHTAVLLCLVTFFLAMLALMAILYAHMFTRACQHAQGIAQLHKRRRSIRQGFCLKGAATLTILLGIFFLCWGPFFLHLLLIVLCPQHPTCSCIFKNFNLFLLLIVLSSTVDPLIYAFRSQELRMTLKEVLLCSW

- ambulatory activity (male mice; [10]): not different
- EC50 (mMC1R [1]): 1.1 nM
- EC50 (mMC3R [2]): 40 nM
- selectivity for the mMC4R over the mMC3R (mMC4R [3]; agonist potency): 25 fold
- EC50 (mMC4R [3]; read-out: mMC4R EC50, agonist, cAMP): 1.6 nM
- EC50 (mMC5R [4]): 0.3 nM
Molecule: C[C@@H]1NC(=O)[C@H](CN)NC(=O)[C@H](Cc2c[nH]c3ccccc23)NC(=O)[C@H](CCCNC(=N)N)NC(=O)[C@@H](Cc2ccccc2)NC(=O)[C@H](Cc2cnc[nH]2)NC(=O)[C@@H]2CCCN2C(=O)[C@H]2CCCN2C1=O [MDE6-5-2c, c[Pro-His-DPhe-Arg-Trp-Dap-Ala-DPro]] (cyclo(H[dF]RW[Dap]A[dP]P))

Molecule: C[C@@H]1NC(=O)[C@H](CN)NC(=O)[C@H](Cc2c[nH]c3ccccc23)NC(=O)[C@H](CCCNC(=N)N)NC(=O)[C@@H](Cc2ccccc2)NC(=O)[C@H](Cc2c[nH]cn2)NC(=O)[C@@H]2CCCN2C(=O)[C@H]2CCCN2C1=O [MDE6-5-2c, c[Pro-His-DPhe-Arg-Trp-Dap-Ala-DPro]] (cyclo(H[dF]RW[Dap]A[dP]P))
- cumulative food intake following ICV administration, 10 nmol (male mice; ICV, 10 nmol, 72 h): decreased food intake through 72 h
- Respiratory Exchange Ratio (RER) effect, ICV 10 nmol (male mice; ICV, 10 nmol, first 24 h, versus lower doses): more robust
- cumulative food intake following ICV administration (male mice; ICV, 2, 5, 10 nmol, first 24 h, dose response): further decreased food intake
- Respiratory Exchange Ratio (RER), ICV 2 and 5 nmol (male mice; ICV, 2 and 5 nmol, first 24 h): decreased RER compared to vehicle control
- Respiratory Exchange Ratio (RER) effect, IT administration (male mice; IT): more modest effect
- cumulative food intake following IT administration (male mice; IT, 2, 5, 10 nmol, not dose-responsive): decreased food intake was observed
- energy expenditure (male mice; [10]): not different
- water intake (male mice; [10]): not different
- duration of effects on RER following a single dose (male mice; single dose, all cases): 24 h

Molecule: Tyr-c[Asp-His-DPhe-Arg-Trp-Asn-Ala-Phe-Dap]-Tyr-NH2 (FRWNAF; Tyr-Asp-His, Dap lactam, Tyr-NH2; printed: Phe-Arg-Trp-Asn-Ala-Phe-) [previously reported lactam bridged AGRP/NDP-MSH chimeric ligand]
- EC50 (mMC1R [5]): 0.2 nM
- EC50 (mMC3R [6]): 1 nM
- reported selectivity for the mMC4R over the mMC3R (mMC4R [7]): 5 fold
- EC50 (mMC4R [7]): 0.2 nM
- EC50 (mMC5R [8]): 0.5 nM

Molecule: Ac-mini-(His-DPhe-Arg-Trp)hAGRP-NH2
- EC50 (mMC1R [5]): 0.16 nM
- EC50 (mMC3R [6]): 30 nM
- EC50 (mMC4R [7]): 1.4 nM
- EC50 (mMC5R [8]): 0.6 nM and 0.56 nM

Molecule: AGRP: agouti-related protein, naturally occurring melanocortin antagonist (SSRRCVRLHESCLGQQVPCCDPCATCYCRFFNAFCYCRKLGTAMNPCSRT; ends and bridges not checked; cysteine pairing not given here; UniProt O00253 83-132, looked up)
- lower potency at the mMC3R versus the mMC4R (mMC4R [9]): ~10 fold

Molecule: Tyr-c[Cys-His-DPhe-Arg-Trp-Asn-Ala-Phe-Cys]-Tyr-NH2 (FRWNAFC; not fully specified; Tyr-Cys-His, disulfide, Tyr-NH2; printed: Phe-Arg-Trp-Asn-Ala-Phe-Cys) [previously reported disulfide bridged AGRP/NDP-MSH chimeric ligand]
- EC50 (mMC1R [5]): 0.35 nM
- EC50 (mMC3R [6]): 2 nM
- reported selectivity for the mMC4R over the mMC3R (mMC4R [7]): 7 fold
- EC50 (mMC4R [7]): 0.3 nM
- EC50 (mMC5R [8]): 2 nM
